LC50 and CC50 data for 21 molecules are collected here from patent US20240150356A1, “Pyrimidine amide compounds and use thereof” (ALPHALA CO., LTD., priority 2019, published 2024).

Structures are written as SMILES. Like-named read-outs stand apart in the source and are kept apart here.

What all share (type): cell-based
For assay [1], the system named is Hep3B cells (hepatocellular carcinoma cell line). In words: In vitro MTS cell viability assay (NCI-60 methodology), Hep3B. The settings on record: Homo sapiens, 48 h, 2 days drug incubation, 50% reduction vs time zero, read-out: Hep3B LC50. In a few lines: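 Hep3B cells given five 2-fold dilutions of compound for 2 days, with viability by MTS measured at time zero and at end. LC50 is the concentration giving a 50% fall in viable cells relative to the start of treatment, per NCI-60 formula.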

For assay [2], the system named is NCI-H460 (human lung cancer cell line). The assay is described as follows: In vitro MTS cell viability assay (NCI-60 methodology), NCI-H460. The settings on record: NCI-H460 cells, read-out: NCI-H460 LC50. How it is done:
(§1) The cell viability measurement is based on the NCI-60 screening methodology (Nat. Rev. Cancer 6, 813-823, 2006). Briefly, cells are inoculated into 96-well plates at the optimal plating density. After 24 h, one of the two plates for Hep3B cell line is processed to determine a time zero cell viability (Tz) by MTS assay (Promega). Compounds are added over a 2-fold serial dilution to provide a total five drug concentrations plus DMSO control. Plates are incubated for a further 2 days, then measured cell viability by MTS assay [control growth (C) and test growth in the presence of drug at the five concentration levels (Ti)]. The LC50 is calculated from [(Ti−Tz)/Tz]×100=−50, which is the drug concentration resulting in a 50% reduction at the end of the drug treatment as compared to that at the beginning.
(§2) The compounds prepared in Tables 1-10 were tested in three in vitro assays, and the results are shown in Tables 1-10 for Hep3B and Table 11 for SW480 and NCI-H460 shown below. Herein, Hep3B refers to hepatocellular carcinoma cell line, SW480 refers to colon adenocarcinoma cell line, and NCI-H460 refers to human lung cancer cell line.
(§3) Shown in Tables 11 are in vitro activities of exemplary compounds of formula (I).

The subject of assay [3] is SW480 (colon adenocarcinoma cell line). The assay is described as follows: In vitro MTS cell viability assay (NCI-60 methodology), SW480. To be noted: Homo sapiens, SW480 cells, read-out: SW480 LC50. How it is done: as §1, §2, §3

For `O=C(Nc1nc(-c2ccc(Cl)cc2Cl)nc2c1cnn2-c1ccccc1)c1ccc([N+](=O)[O-])s1` [Compound 5-49], the LC50 in assay [1] (Table 5, MTS) turned out to be 0.27 µM. Also, the CC50 in assay [2] stood at 1.22 µM; in assay [3], 3.75 µM.

For `O=C(Nc1nc(-c2ccc(N3CCCCC3)nc2)nc2c1cnn2-c1ccccc1)c1ccc([N+](=O)[O-])s1` [Compound 5-42, 5-nitro-N-(1-phenyl-6-(6-(piperidin-1-yl)pyridin-3-yl)-1H-pyrazolo[3,4-d]pyrimidin-4-yl)thiophene-2-carboxamide], the LC50 in assay [1] (Table 5, MTS) came out at 0.51 µM. Further, the CC50 in assay [2] is 1.67 µM; in assay [3], 0.89 µM.

Turning to `CC(C)(C)c1ccc(-n2ncc3c(NC(=O)c4ccc([N+](=O)[O-])s4)nc(N4CCC(F)(F)C4)nc32)cc1` [Compound 6-66, N-(1-(4-(tert-butyl)phenyl)-6-(3,3-difluoropyrrolidin-1-yl)-1H-pyrazolo[3,4,d]pyrimidin-4-yl)-5-nitrothiophene-2-carboxamide], in assay [1] (Table 6, MTS), the LC50 is 0.13 µM. Also, the CC50 in assay [2] was 0.41 µM; in assay [3], over 10 µM.

Turning to `O=C(Nc1nc(-c2cncnc2)nc2c1cnn2-c1ccc(F)cc1)c1ccc([N+](=O)[O-])s1` [Compound 6-112, N-(1-(4-fluorophenyl)-6-(pyrimidin-5-yl)-1H-pyrazolo[3,4-d]pyrimidin-4-yl)-5-nitrothiophene-2-carboxamide], the 50% lethal concentration (LC50) in assay [1] (Table 6, MTS) stood at 0.22 µM. Further, the CC50 worked out at 0.97 µM in assay [2] and 0.81 µM in assay [3].

In the case of `Cc1ccc(-n2ncc3c(NC(=O)c4ccc([N+](=O)[O-])s4)nc(-c4ccc(F)cc4)nc32)cc1` [Compound 6-4, N-(6-(4-fluorophenyl)-1-(p-tolyl)-1H-pyrazolo[3,4-d]pyrimidin-4-yl)-5-nitrothiophene-2-carboxamide], the LC50 in assay [1] (Table 6, MTS) is 0.28 µM. Further, the CC50 in assay [2] came out at 0.68 µM; in assay [3], 1.51 µM.

For `O=C(Nc1nc(-c2cccnc2)nc2c1cnn2-c1ccc(F)cc1)c1ccc([N+](=O)[O-])s1` [Compound 6-111, N-(1-(4-fluorophenyl)-6-(pyridin-3-yl)-1H-pyrazolo[3,4-d]pyrimidin-4-yl)-5-nitrothiophene-2-carboxamide], in assay [1] (Table 6, MTS), the LC50 came to 0.09 µM. Further, the CC50 in assay [2] was 1.87 µM; in assay [3], over 4 µM.

For the molecule `COC(=O)c1ccc(-c2nc(NC(=O)c3ccc([N+](=O)[O-])s3)c3cnn(C4CCN(C(=O)OC(C)(C)C)CC4)c3n2)cc1` [Compound 9-3, tert-butyl 4-(6-(4-(methoxycarbonyl)phenyl)-4-(5-nitrothiophene-2-carboxamido)-1H-pyrazolo[3,4-d]pyrmidin-1-yl)piperidine-1-carboxylate], in assay [1] (Table 9, MTS), the LC50 turned out to be 0.42 µM. For the same molecule, the CC50 is 1.22 µM in assay [2] and 2.72 µM in assay [3].

On to `Cc1ccc(-c2nc(NC(=O)c3ccc([N+](=O)[O-])s3)c3cnn(-c4ccc(F)cc4)c3n2)cn1` [Compound 6-120, N-(1-(4-fluorophenyl)-6-(6-methylpyridin-3-yl)-1H-pyrazolo[3,4-d]pyrimidin-4-yl)-5-nitrothiophene-2-carboxamide], for which the LC50 in assay [1] (Table 6, MTS) is 0.25 µM. In addition, the CC50 was found to be 1.34 µM in assay [2] and 0.51 µM in assay [3].

For the molecule `O=C(Nc1nc(-c2ccc3c(c2)OCO3)nc2c1cnn2-c1cccc(Cl)c1)c1ccc([N+](=O)[O-])s1` [Compound 6-39, N-(6-(benzo[d][1,3]dioxol-5-yl)-1-(3-chlorophenyl)-1H-pyrazolo[3,4-d]pyrimidin-4-yl)-5-nitrothiophene-2-carboxamide], the LC50 in assay [1] (Table 6, MTS) is 0.27 µM. Besides, the CC50 in assay [2] turned out to be 1.07 µM; in assay [3] it was 3.18 µM.

For the molecule `O=C(Nc1nc(N2CCC[C@H]2COc2ccccc2)nc2c1cnn2-c1ccc(F)cc1)c1ccc([N+](=O)[O-])s1` [Compound 6-106, (S)—N-(1-(4-fluorophenyl)-6-(2-(phenoxymethyl)pyrrolidin-1-yl)-1H-pyrazolo[3,4-d]pyrimidin-4-yl)-5-nitrothiophene-2-carboxamide], the LC50 in assay [1] (Table 6, MTS) stood at 0.43 µM. Moreover, the CC50 in assay [2] worked out at 1.65 µM; in assay [3], 0.5 µM.

Consider `O=C(Nc1nc(-c2ccc(Cl)nc2)nc2c1cnn2-c1ccccc1)c1ccc([N+](=O)[O-])s1` [Compound 5-31, N-(6-(6-chloropyridin-3-yl)-1-phenyl-1H-pyrazolo[3,4-d]pyrimidin-4-yl)-5-nitrothiophene-2-carboxamide], for which the LC50 in assay [1] (Table 5, MTS) stood at 0.1 µM. The CC50 in assay [2] came out at 0.41 µM; in assay [3] it was 0.86 µM.

Regarding `O=C(Nc1nc(-c2ccc(Cl)cc2)nc2c1cnn2-c1ccc(F)cc1)c1ccc([N+](=O)[O-])s1` [Compound 6-118, N-(6-(chlorophenyl)-1-(4-fluorophenyl)-1H-pyrazolo[3,4-d]pyrimidin-4-yl)-5-nitrothiophene-2-carboxamide], the LC50 in assay [1] (Table 6, MTS) stood at 0.25 µM. For the same molecule, the CC50 in assay [2] worked out at 0.98 µM; in assay [3] it was 2.18 µM.

Take `O=C(Nc1nc(-c2ccc(F)nc2)nc2c1cnn2C1CCC(F)(F)CC1)c1ccc([N+](=O)[O-])s1` [Compound 10-55, N-(1-(4,4-difluorocyclohexyl)-6-(6-fluoropyridin-3-yl)-1H-pyrazolo[3,4-d]pyrimidin-4-yl)-5-nitrothiophene-2-carboxamide]: in assay [1] (Table 10, MTS), the LC50 is 0.71 µM. The CC50 in assay [2] was 0.94 µM; in assay [3] it was 1.06 µM.

Turning to `O=C(Nc1nc(-c2ccc(Cl)cc2F)nc2c1cnn2-c1ccccc1)c1ccc([N+](=O)[O-])s1` [Compound 5-47, N-(6-(4-chloro-2-fluorophenyl)-1-phenyl-1H-pyrazolo[3,4-d]pyrimidin-4-yl)-5-nitrothiophene-2-carboxamide], the LC50 in assay [1] (Table 5, MTS) amounted to 0.13 µM. Besides, the CC50 in assay [2] is 0.29 µM; in assay [3] it was 0.61 µM.

With `COc1ccc(-c2nc(NC(=O)c3ccc([N+](=O)[O-])s3)c3cnn(-c4ccc(F)cc4)c3n2)cn1` [Compound 6-121, N-(1-(4-fluorophenyl)-6-(6-methoxypyridin-3-yl)-1H-pyrazolo[3,4-d]pyrimidin-4-yl)-5-nitrothiophene-2-carboxamide], the LC50 in assay [1] (Table 6, MTS) worked out at 0.07 µM. The CC50 in assay [2] came out at 0.48 µM; in assay [3], 0.63 µM.

Take `O=C(Nc1nc(-c2ccc(F)cc2)nc2c1cnn2-c1ccc(C(F)(F)F)cn1)c1ccc([N+](=O)[O-])s1` [Compound 7-1, N-(6-(4-fluorophenyl)-1-(5-(trifluoromethyl)pyridin-2-yl)-1H-pyrazolo[3,4-d]pyrimidin-4-yl)-5-nitrothiophene-2-carboxamide]: in assay [1] (Table 7, MTS), the LC50 is 0.26 µM. The CC50 was 8.63 µM in assay [2] and over 20 µM in assay [3].

For `O=C(Nc1nc(-c2ccc(F)nc2)nc2c1cnn2C1CCCCC1)c1ccc([N+](=O)[O-])s1` [Compound 10-14, N-(1-cyclohexyl-6-(6-fluoropyridin-3-yl)-1H-pyrazolo[3,4-d]pyrimidin-4-yl)-5-nitrothiophene-2-carboxamide], the median lethal concentration (LC50) in assay [1] (Table 10, MTS) was found to be 0.89 µM. Further, the CC50 stood at 0.91 µM in assay [2] and 1.71 µM in assay [3].

Turning to `O=C(Nc1nc(-c2ccc(F)c(F)c2)nc2c1cnn2C1CCCCC1)c1ccc([N+](=O)[O-])s1` [Compound 10-40, N-(1-cyclohexyl-6-(3,4-difluorophenyl)-1H-pyrazolo[3,4-d]pyrimidin-4-yl)-5-nitrothiophene-2-carboxamide], the median lethal concentration (LC50) in assay [1] (Table 10, MTS) is 0.32 µM. The CC50 is 1.16 µM in assay [2] and 1.04 µM in assay [3].

For the molecule `Cc1ccc(-n2ncc3c(NC(=O)c4ccc([N+](=O)[O-])s4)nc(-c4ccc(F)nc4)nc32)cc1` [Compound 6-5, N-(6-(6-fluoropyridin-3-yl)-1-(p-tolyl)-1H-pyrazolo[3,4-d]pyrimidin-4-yl)-5-nitrothiophene-2-carboxamide], the 50% lethal concentration (LC50) in assay [1] (Table 6, MTS) is 0.11 µM. For the same molecule, the results for the CC50 in assay [2] and in assay [3] were 0.91 µM and 0.65 µM, respectively.

As for `O=C(Nc1nc(-c2ccccc2)nc2c1cnn2-c1ccc(F)cc1)c1ccc([N+](=O)[O-])s1` [Compound 6-110, N-(1-(4-fluorophenyl)-6-phenyl-1H-pyrazolo[3,4-d]pyrimidin-4-yl)-5-nitrothiophene-2-carboxamide], the LC50 in assay [1] (Table 6, MTS) was determined as 0.23 µM. Also, the CC50 in assay [2] was found to be 1.41 µM; in assay [3], 1.25 µM.

Consider `CN(C)CCOc1ccc(-c2nc(NC(=O)c3ccc([N+](=O)[O-])s3)c3cnn(-c4ccc(F)cc4)c3n2)cn1` [Compound 6-130, N-(6-(6-(2-(dimethylamino)ethoxy)pyridin-3-yl)-1-(4-fluorophenyl)-1H-pyrazolo[3,4-d]pyrimidin-4-yl)-5-nitrothiophene-2-carboxamide], for which the LC50 in assay [1] (Table 6, MTS) is 0.26 µM. For the same molecule, the results for the CC50 in assay [2] and in assay [3] were 3.81 µM and 2.9 µM, respectively.
